In publication PMC11728000, “Antitumor Activity and Multi-Target Mechanism of Phenolic Schiff Bases Bearing Methanesulfonamide Fragments: Cell Cycle Analysis and a Molecular Modeling Study” (International Journal of Molecular Sciences, 2024):
Like-named read-outs stand apart in the source and are kept apart here.

What was measured:
SW-620 = tested on: SW-620; parameters: method as in https://dtp.cancer.gov/dtpstandard/dwindex/index.jsp; settings: ref https://dtp.cancer.gov/dtpstandard/dwindex/index.jsp; cited from earlier work
ACHN = tested on: ACHN; parameters: method as in https://dtp.cancer.gov/dtpstandard/dwindex/index.jsp; settings: ref https://dtp.cancer.gov/dtpstandard/dwindex/index.jsp; cited from earlier work
DU-145 [1] = tested on: DU-145; parameters: method as in https://dtp.cancer.gov/dtpstandard/dwindex/index.jsp; settings: ref https://dtp.cancer.gov/dtpstandard/dwindex/index.jsp; cited from earlier work
A498 = tested on: A498; parameters: method as in https://dtp.cancer.gov/dtpstandard/dwindex/index.jsp; settings: ref https://dtp.cancer.gov/dtpstandard/dwindex/index.jsp; cited from earlier work
[2] = tested on: CNS Cancer subpanel tumor cell lines; settings: cited from earlier work; for GI50: read-out: GI50, subpanel average, ref https://dtp.cancer.gov/dtpstandard/dwindex/index.jsp; for CC50: read-out: LC50, subpanel average, ref https://dtp.cancer.gov/dtpstandard/dwindex/index.jsp; for TGI, subpanel average: ref https://dtp.cancer.gov/dtpstandard/dwindex/index.jsp
[3] = tested on: Melanoma subpanel tumor cell lines; settings: cited from earlier work; for GI50: read-out: GI50, subpanel average, ref https://dtp.cancer.gov/dtpstandard/dwindex/index.jsp; for CC50: read-out: LC50, subpanel average, ref https://dtp.cancer.gov/dtpstandard/dwindex/index.jsp; for TGI, subpanel average: ref https://dtp.cancer.gov/dtpstandard/dwindex/index.jsp
SN12C = tested on: SN12C; parameters: method as in https://dtp.cancer.gov/dtpstandard/dwindex/index.jsp; settings: ref https://dtp.cancer.gov/dtpstandard/dwindex/index.jsp; cited from earlier work
COLO 205 = tested on: COLO 205; parameters: method as in https://dtp.cancer.gov/dtpstandard/dwindex/index.jsp; settings: ref https://dtp.cancer.gov/dtpstandard/dwindex/index.jsp; cited from earlier work
OVCAR-5 = tested on: OVCAR-5; parameters: method as in https://dtp.cancer.gov/dtpstandard/dwindex/index.jsp; settings: ref https://dtp.cancer.gov/dtpstandard/dwindex/index.jsp; cited from earlier work
BT-549 [4] = tested on: BT-549; parameters: method as in https://dtp.cancer.gov/dtpstandard/dwindex/index.jsp; settings: ref https://dtp.cancer.gov/dtpstandard/dwindex/index.jsp; cited from earlier work
NCI/ADR-RES = tested on: NCI/ADR-RES; parameters: method as in https://dtp.cancer.gov/dtpstandard/dwindex/index.jsp; settings: ref https://dtp.cancer.gov/dtpstandard/dwindex/index.jsp; cited from earlier work
OVCAR-4 [5] = tested on: OVCAR-4; parameters: method as in https://dtp.cancer.gov/dtpstandard/dwindex/index.jsp; settings: ref https://dtp.cancer.gov/dtpstandard/dwindex/index.jsp; cited from earlier work
PC-3 = tested on: PC-3; parameters: method as in https://dtp.cancer.gov/dtpstandard/dwindex/index.jsp; settings: ref https://dtp.cancer.gov/dtpstandard/dwindex/index.jsp; cited from earlier work
[6] = tested on: Colon Cancer subpanel tumor cell lines; settings: cited from earlier work; for GI50: read-out: GI50, subpanel average, ref https://dtp.cancer.gov/dtpstandard/dwindex/index.jsp; for CC50: read-out: LC50, subpanel average, ref https://dtp.cancer.gov/dtpstandard/dwindex/index.jsp; for TGI, subpanel average: ref https://dtp.cancer.gov/dtpstandard/dwindex/index.jsp
M14 = tested on: M14; parameters: method as in https://dtp.cancer.gov/dtpstandard/dwindex/index.jsp; settings: ref https://dtp.cancer.gov/dtpstandard/dwindex/index.jsp; cited from earlier work
HOP-62 = tested on: HOP-62; parameters: method as in https://dtp.cancer.gov/dtpstandard/dwindex/index.jsp; settings: ref https://dtp.cancer.gov/dtpstandard/dwindex/index.jsp; cited from earlier work
OVCAR-8 = tested on: OVCAR-8; parameters: method as in https://dtp.cancer.gov/dtpstandard/dwindex/index.jsp; settings: ref https://dtp.cancer.gov/dtpstandard/dwindex/index.jsp; cited from earlier work
NCI-H460 = tested on: NCI-H460; parameters: method as in https://dtp.cancer.gov/dtpstandard/dwindex/index.jsp; settings: ref https://dtp.cancer.gov/dtpstandard/dwindex/index.jsp; cited from earlier work
UACC-257 = tested on: UACC-257; parameters: method as in https://dtp.cancer.gov/dtpstandard/dwindex/index.jsp; settings: ref https://dtp.cancer.gov/dtpstandard/dwindex/index.jsp; cited from earlier work
KM12 = tested on: KM12; parameters: method as in https://dtp.cancer.gov/dtpstandard/dwindex/index.jsp; settings: ref https://dtp.cancer.gov/dtpstandard/dwindex/index.jsp; cited from earlier work
[7] = tested on: Breast Cancer subpanel tumor cell lines; settings: cited from earlier work; for TGI, subpanel average: ref https://dtp.cancer.gov/dtpstandard/dwindex/index.jsp
SK-MEL-2 = tested on: SK-MEL-2; parameters: method as in https://dtp.cancer.gov/dtpstandard/dwindex/index.jsp; settings: ref https://dtp.cancer.gov/dtpstandard/dwindex/index.jsp; cited from earlier work
HCT-15 [8] = tested on: HCT-15; parameters: method as in https://dtp.cancer.gov/dtpstandard/dwindex/index.jsp; settings: ref https://dtp.cancer.gov/dtpstandard/dwindex/index.jsp; cited from earlier work
UACC-62 = tested on: UACC-62; parameters: method as in https://dtp.cancer.gov/dtpstandard/dwindex/index.jsp; settings: ref https://dtp.cancer.gov/dtpstandard/dwindex/index.jsp; cited from earlier work
SK-MEL-28 = tested on: SK-MEL-28; parameters: method as in https://dtp.cancer.gov/dtpstandard/dwindex/index.jsp; settings: ref https://dtp.cancer.gov/dtpstandard/dwindex/index.jsp; cited from earlier work
[9] = tested on: Prostate Cancer subpanel tumor cell lines; settings: cited from earlier work; for GI50: read-out: GI50, subpanel average, ref https://dtp.cancer.gov/dtpstandard/dwindex/index.jsp; for CC50: read-out: LC50, subpanel average, ref https://dtp.cancer.gov/dtpstandard/dwindex/index.jsp; for TGI, subpanel average: ref https://dtp.cancer.gov/dtpstandard/dwindex/index.jsp
K-562 = test: NCI anticancer screening (SRB), Leukemia subpanel; type: cell-based, human
HCT-15 [10] = test: NCI anticancer screening (SRB), Colon Cancer subpanel; type: cell-based, human
CAKI-1 = test: NCI anticancer screening (SRB), Renal Cancer subpanel; type: cell-based, human
BT-549 [11] = test: NCI anticancer screening (SRB), Breast Cancer subpanel; type: cell-based, human
SF-539 = test: NCI anticancer screening (SRB), CNS Cancer subpanel; type: cell-based, human
MDA-MB-231/ATCC = test: NCI anticancer screening (SRB), Breast Cancer subpanel; type: cell-based, human
DU-145 [12] = test: NCI anticancer screening (SRB), Prostate Cancer subpanel; type: cell-based, human
HCT-116 = test: NCI anticancer screening (SRB), Colon Cancer subpanel; type: cell-based, human
EGFR = EGFR (Homo sapiens, UniProt P00533); test: EGFR tyrosine kinase inhibition assay (Kinase-Glo MAX)
EGFR, sequence (P00533 25-1210): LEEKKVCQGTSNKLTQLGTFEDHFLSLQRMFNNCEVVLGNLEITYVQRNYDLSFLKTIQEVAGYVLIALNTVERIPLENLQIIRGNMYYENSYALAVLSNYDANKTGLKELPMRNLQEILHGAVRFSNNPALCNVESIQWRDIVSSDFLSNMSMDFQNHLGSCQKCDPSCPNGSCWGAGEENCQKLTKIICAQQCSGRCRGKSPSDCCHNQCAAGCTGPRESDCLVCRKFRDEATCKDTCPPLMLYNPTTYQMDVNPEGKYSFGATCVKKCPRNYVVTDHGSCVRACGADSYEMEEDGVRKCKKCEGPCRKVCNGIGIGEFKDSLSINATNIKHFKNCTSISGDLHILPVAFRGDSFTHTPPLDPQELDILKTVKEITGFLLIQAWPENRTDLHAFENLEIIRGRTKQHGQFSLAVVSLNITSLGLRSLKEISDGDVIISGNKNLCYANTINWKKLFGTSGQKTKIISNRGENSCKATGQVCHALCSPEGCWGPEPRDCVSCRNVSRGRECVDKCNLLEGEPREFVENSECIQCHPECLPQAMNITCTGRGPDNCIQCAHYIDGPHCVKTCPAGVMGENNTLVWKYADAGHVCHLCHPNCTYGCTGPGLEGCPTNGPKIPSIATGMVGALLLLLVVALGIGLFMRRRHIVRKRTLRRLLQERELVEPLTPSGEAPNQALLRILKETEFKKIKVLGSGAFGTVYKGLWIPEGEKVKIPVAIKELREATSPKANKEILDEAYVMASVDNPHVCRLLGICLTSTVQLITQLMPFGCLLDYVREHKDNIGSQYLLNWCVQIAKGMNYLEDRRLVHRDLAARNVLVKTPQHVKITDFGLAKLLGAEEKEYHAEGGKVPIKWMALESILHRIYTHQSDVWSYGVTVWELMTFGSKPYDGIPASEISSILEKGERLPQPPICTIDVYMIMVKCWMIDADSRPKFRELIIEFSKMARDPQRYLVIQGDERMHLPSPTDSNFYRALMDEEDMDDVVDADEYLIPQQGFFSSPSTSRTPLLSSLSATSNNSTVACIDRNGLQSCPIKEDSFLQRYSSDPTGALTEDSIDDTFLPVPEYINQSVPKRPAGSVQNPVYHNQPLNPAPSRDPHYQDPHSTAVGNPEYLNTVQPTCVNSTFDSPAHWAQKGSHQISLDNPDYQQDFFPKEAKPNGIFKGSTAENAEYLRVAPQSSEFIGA

T-47D = test: NCI anticancer screening (SRB), Breast Cancer subpanel; type: cell-based, human
MALME-3M = test: NCI anticancer screening (SRB), Melanoma subpanel; type: cell-based, human
786-0 = test: NCI anticancer screening (SRB), Renal Cancer subpanel; type: cell-based, human
OVCAR-4 [13] = test: NCI anticancer screening (SRB), Ovarian Cancer subpanel; type: cell-based, human
[14] = Homo sapiens, five concentrations

Which GI50 (SW-620) does the source give for `Cc1ccc(-c2cc(C(F)(F)F)nn2-c2ccc(S(N)(=O)=O)cc2)cc1` [Celecoxib, celecoxib] here?
The GI50 was 15.8 µM.

What about the GI50 (ACHN) of the same molecule?
Its GI50 is 15.8 µM.

What about the GI50 (DU-145 [1]) of the same molecule?
Its GI50 is 15.8 µM.

And the GI50 (A498)?
Its GI50 is 15.8 µM.

What about the GI50 [2] of the same molecule?
The GI50 was 17.2 µM.

What about the CC50 [2] of the same molecule?
Its CC50 is 58.8 µM.

What about the “TGI, subpanel average” value [2] of the same molecule?
Its value is 31.62 µM.

What about the GI50 [3] of the same molecule?
The GI50 was 22.5 µM.

And the CC50 [3]?
Its CC50 is 64.3 µM.

What about the “TGI, subpanel average” value [3] of the same molecule?
Its value is 38.49 µM.

And the GI50 (SN12C)?
Its GI50 is 15.8 µM.

And the GI50 (COLO 205)?
The GI50 was 15.8 µM.

And the GI50 (OVCAR-5)?
The GI50 was 19.9 µM.

What about the GI50 (BT-549 [4]) of the same molecule?
The GI50 was 19.9 µM.

And the GI50 (NCI/ADR-RES)?
The GI50 was 15.8 µM.

And the GI50 (OVCAR-4 [5])?
The GI50 was 12.6 µM.

And the GI50 (PC-3)?
The GI50 was 12.6 µM.

And the GI50 [6]?
The GI50 was 20.7 µM.

And the CC50 [6]?
Its CC50 is 66.5 µM.

What about the “TGI, subpanel average” value [6] of the same molecule?
The value was 41.39 µM.

And the GI50 (M14)?
Its GI50 is 63.1 µM.

And the GI50 (HOP-62)?
The GI50 was 63.1 µM.

And the GI50 (OVCAR-8)?
The GI50 was 19.9 µM.

What about the GI50 (NCI-H460) of the same molecule?
The GI50 was 15.8 µM.

And the GI50 (UACC-257)?
The GI50 was 19.9 µM.

What about the GI50 (KM12) of the same molecule?
The GI50 was 15.8 µM.

And the GI50 ([7]; read-out: GI50, subpanel average, ref https://dtp.cancer.gov/dtpstandard/dwindex/index.jsp)?
The GI50 was 17.5 µM.

What about the “TGI, subpanel average” value [7] of the same molecule?
The value was 34.89 µM.

What about the GI50 (SK-MEL-2) of the same molecule?
Its GI50 is 15.8 µM.

What about the GI50 (HCT-15 [8]) of the same molecule?
Its GI50 is 15.8 µM.

And the GI50 (UACC-62)?
Its GI50 is 15.8 µM.

And the GI50 (SK-MEL-28)?
Its GI50 is 15.8 µM.

And the GI50 [9]?
The GI50 was 14.2 µM.

And the CC50 [9]?
The CC50 was 57 µM.

What about the “TGI, subpanel average” value [9] of the same molecule?
Its value is 28.37 µM.

With `CCN(CC)c1ccc(C=NNC(=O)c2ccc(NS(C)(=O)=O)cc2)c(O)c1` [Compound 8] as the molecule, how does the GI% (K-562; 10.0 µM in one dose) read?
The GI% was 86%.

And the GI50 (K-562; Homo sapiens, K562, five concentrations)?
The GI50 was 0.492 µM.

What about the GI% (HCT-15 [10]; 10.0 µM in one dose) of the same molecule?
Its GI% is 80%.

What about the GI50 (HCT-15 [10]; [14]) of the same molecule?
Its GI50 is 0.358 µM.

And the GI% (CAKI-1; 10.0 µM in one dose)?
Its GI% is 81%.

And the GI50 (CAKI-1; [14])?
Its GI50 is 0.464 µM.

What about the GI% (BT-549 [11]; 10.0 µM in one dose) of the same molecule?
Its GI% is 88%.

What about the GI50 (BT-549 [11]; [14]) of the same molecule?
Its GI50 is 0.569 µM.

What about the GI% (SF-539; 10.0 µM in one dose) of the same molecule?
Its GI% is 93%.

And the GI50 (SF-539; [14])?
Its GI50 is 0.362 µM.

What about the GI% (MDA-MB-231/ATCC; 10.0 µM in one dose) of the same molecule?
The GI% was 62%.

What about the GI50 (MDA-MB-231/ATCC; [14]) of the same molecule?
The GI50 was 0.425 µM.

And the GI% (DU-145 [12]; 10.0 µM in one dose)?
The GI% was 69%.

And the GI50 (DU-145 [12]; [14])?
The GI50 was 0.685 µM.

And the GI% (HCT-116; 10.0 µM in one dose)?
Its GI% is 78%.

And the GI50 (HCT-116; Homo sapiens)?
Its GI50 is 0.263 µM.

What about the IC50 (EGFR) of the same molecule?
The IC50 was 0.166 ± 0.033 µM.

And the GI% (T-47D; 10.0 µM in one dose)?
Its GI% is 74%.

What about the GI50 (T-47D; Homo sapiens, T47D, five concentrations) of the same molecule?
The GI50 was 0.382 µM.

And the GI% (MALME-3M; 10.0 µM in one dose)?
Its GI% is 96%.

And the GI50 (MALME-3M; [14])?
Its GI50 is 0.855 µM.

What about the GI% (786-0; 10.0 µM in one dose) of the same molecule?
Its GI% is 98%.

What about the GI50 (786-0; [14]) of the same molecule?
The GI50 was 0.358 µM.

And the GI% (OVCAR-4 [13]; 10.0 µM in one dose)?
Its GI% is 69%.

What about the GI50 (OVCAR-4 [13]; [14]) of the same molecule?
Its GI50 is 0.388 µM.

What does the source list for `CNC(=O)c1cc(Oc2ccc(NC(=O)Nc3ccc(Cl)c(C(F)(F)F)c3)cc2)ccn1` [Sorafenib, sorafenib]?
GI50 (SW-620): 2.51 µM; GI50 (ACHN): 2.51 µM; GI50 (DU-145 [1]): 3.16 µM; GI50 (A498): 2.51 µM; GI50 [2]: 2.33 µM; CC50 [2]: 27.8 µM; TGI, subpanel average [2]: 7.64 µM; GI50 [3]: 1.87 µM; CC50 [3]: 28.6 µM; TGI, subpanel average [3]: 6.29 µM; GI50 (SN12C): 2.51 µM; GI50 (COLO 205): 1.99 µM; GI50 (OVCAR-5): 3.16 µM; GI50 (BT-549 [4]): 3.16 µM; GI50 (NCI/ADR-RES): 2.51 µM; GI50 (OVCAR-4 [5]): 3.16 µM; GI50 (PC-3): 1.99 µM; GI50 [6]: 2.19 µM; CC50 [6]: 38.1 µM; TGI, subpanel average [6]: 7.94 µM; GI50 (M14): 1.99 µM; GI50 (HOP-62): 1.99 µM; GI50 (OVCAR-8): 3.16 µM; GI50 (NCI-H460): 2.51 µM; GI50 (UACC-257): 1.99 µM; CC50 ([7]; read-out: LC50, subpanel average, ref https://dtp.cancer.gov/dtpstandard/dwindex/index.jsp): 57.3 µM; TGI, subpanel average [7]: 9.35 µM; GI50 (SK-MEL-2): 1.99 µM; GI50 (HCT-15 [8]): 2.51 µM; GI50 (SK-MEL-28): 2.51 µM; GI50 [9]: 2.58 µM; CC50 [9]: 69.9 µM; TGI, subpanel average [9]: 10.27 µM
